Assay results taken from patent US20090227575A1, “7H-PYRROLO[2,3-H]QUINAZOLINE COMPOUNDS, THEIR USE AS mTOR KINASE AND PI3 KINASE INHIBITORS, AND THEIR [sequence]” (Wyeth, priority 2008, published 2009).
Like-named read-outs stand apart in the source and are kept apart here.

Assays:
Format in all cases: biochemical
human SMG-1 (hSMG-1) = human SMG-1 (hSMG-1) (Homo sapiens, UniProt Q96Q15); test: hSMG-1 kinase assay (DELFIA); conditions: read-out: hSMG1 IC50
Human mTOR = Human mTOR (Homo sapiens, UniProt P42345); test: mTOR kinase assay (DELFIA format, purified enzyme); parameters: FLAG
PI3K-alpha = PI3K-alpha (Homo sapiens, UniProt P42336); test: PI3K-alpha fluorescence polarization assay; conditions: read-out: PI3 Kinase α IC50
Method in brief: (§1)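 Diluted enzyme and compound (1% DMSO) reacted with diC8 PIP2 and ATP substrate in 20 mM HEPES pH 7.5, 2 mM MgCl2, 0.05% CHAPS for 30–60 min. Stopped with EDTA buffer holding 10 nM TAMRA probe and 70 nM GST-GRP. FP (mP) read after 30–90 min against zero-time and no-enzyme controls.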

PI3K-gamma = PI3K-gamma (Homo sapiens, UniProt P48736); test: PI3K-gamma fluorescence polarization assay; conditions: read-out: PI3 Kinase γ IC50
Chain of PI3K-gamma (P48736 whole entry, species assumed): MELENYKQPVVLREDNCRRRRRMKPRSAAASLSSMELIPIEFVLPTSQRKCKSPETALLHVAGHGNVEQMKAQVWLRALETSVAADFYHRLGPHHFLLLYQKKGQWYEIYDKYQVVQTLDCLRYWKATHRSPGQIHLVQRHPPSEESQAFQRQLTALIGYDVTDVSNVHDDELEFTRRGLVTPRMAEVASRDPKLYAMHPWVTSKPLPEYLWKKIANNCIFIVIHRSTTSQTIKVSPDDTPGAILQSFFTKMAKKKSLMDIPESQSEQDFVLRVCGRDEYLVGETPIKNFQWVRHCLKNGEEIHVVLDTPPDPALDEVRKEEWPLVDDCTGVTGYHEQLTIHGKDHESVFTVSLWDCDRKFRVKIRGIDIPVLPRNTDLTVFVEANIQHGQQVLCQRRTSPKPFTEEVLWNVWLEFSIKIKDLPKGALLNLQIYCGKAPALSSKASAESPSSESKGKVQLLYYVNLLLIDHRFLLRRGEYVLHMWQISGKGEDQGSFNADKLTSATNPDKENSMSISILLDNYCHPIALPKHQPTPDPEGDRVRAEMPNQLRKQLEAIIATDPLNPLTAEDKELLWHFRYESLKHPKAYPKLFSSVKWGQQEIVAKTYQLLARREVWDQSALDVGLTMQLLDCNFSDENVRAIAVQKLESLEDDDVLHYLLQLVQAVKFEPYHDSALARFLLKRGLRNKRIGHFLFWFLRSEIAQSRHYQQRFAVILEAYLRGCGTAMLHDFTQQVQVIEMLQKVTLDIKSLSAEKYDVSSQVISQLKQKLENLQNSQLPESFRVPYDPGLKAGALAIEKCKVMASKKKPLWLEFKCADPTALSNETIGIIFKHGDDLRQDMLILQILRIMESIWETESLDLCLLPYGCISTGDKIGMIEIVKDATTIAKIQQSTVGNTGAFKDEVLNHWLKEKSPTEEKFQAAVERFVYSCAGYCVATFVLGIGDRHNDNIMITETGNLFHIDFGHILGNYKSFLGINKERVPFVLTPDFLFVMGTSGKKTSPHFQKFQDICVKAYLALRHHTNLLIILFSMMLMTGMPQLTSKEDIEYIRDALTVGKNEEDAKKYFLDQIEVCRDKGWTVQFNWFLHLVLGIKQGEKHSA
Method in brief: as §1

Chain of human SMG-1 (hSMG-1) (Q96Q15 whole entry): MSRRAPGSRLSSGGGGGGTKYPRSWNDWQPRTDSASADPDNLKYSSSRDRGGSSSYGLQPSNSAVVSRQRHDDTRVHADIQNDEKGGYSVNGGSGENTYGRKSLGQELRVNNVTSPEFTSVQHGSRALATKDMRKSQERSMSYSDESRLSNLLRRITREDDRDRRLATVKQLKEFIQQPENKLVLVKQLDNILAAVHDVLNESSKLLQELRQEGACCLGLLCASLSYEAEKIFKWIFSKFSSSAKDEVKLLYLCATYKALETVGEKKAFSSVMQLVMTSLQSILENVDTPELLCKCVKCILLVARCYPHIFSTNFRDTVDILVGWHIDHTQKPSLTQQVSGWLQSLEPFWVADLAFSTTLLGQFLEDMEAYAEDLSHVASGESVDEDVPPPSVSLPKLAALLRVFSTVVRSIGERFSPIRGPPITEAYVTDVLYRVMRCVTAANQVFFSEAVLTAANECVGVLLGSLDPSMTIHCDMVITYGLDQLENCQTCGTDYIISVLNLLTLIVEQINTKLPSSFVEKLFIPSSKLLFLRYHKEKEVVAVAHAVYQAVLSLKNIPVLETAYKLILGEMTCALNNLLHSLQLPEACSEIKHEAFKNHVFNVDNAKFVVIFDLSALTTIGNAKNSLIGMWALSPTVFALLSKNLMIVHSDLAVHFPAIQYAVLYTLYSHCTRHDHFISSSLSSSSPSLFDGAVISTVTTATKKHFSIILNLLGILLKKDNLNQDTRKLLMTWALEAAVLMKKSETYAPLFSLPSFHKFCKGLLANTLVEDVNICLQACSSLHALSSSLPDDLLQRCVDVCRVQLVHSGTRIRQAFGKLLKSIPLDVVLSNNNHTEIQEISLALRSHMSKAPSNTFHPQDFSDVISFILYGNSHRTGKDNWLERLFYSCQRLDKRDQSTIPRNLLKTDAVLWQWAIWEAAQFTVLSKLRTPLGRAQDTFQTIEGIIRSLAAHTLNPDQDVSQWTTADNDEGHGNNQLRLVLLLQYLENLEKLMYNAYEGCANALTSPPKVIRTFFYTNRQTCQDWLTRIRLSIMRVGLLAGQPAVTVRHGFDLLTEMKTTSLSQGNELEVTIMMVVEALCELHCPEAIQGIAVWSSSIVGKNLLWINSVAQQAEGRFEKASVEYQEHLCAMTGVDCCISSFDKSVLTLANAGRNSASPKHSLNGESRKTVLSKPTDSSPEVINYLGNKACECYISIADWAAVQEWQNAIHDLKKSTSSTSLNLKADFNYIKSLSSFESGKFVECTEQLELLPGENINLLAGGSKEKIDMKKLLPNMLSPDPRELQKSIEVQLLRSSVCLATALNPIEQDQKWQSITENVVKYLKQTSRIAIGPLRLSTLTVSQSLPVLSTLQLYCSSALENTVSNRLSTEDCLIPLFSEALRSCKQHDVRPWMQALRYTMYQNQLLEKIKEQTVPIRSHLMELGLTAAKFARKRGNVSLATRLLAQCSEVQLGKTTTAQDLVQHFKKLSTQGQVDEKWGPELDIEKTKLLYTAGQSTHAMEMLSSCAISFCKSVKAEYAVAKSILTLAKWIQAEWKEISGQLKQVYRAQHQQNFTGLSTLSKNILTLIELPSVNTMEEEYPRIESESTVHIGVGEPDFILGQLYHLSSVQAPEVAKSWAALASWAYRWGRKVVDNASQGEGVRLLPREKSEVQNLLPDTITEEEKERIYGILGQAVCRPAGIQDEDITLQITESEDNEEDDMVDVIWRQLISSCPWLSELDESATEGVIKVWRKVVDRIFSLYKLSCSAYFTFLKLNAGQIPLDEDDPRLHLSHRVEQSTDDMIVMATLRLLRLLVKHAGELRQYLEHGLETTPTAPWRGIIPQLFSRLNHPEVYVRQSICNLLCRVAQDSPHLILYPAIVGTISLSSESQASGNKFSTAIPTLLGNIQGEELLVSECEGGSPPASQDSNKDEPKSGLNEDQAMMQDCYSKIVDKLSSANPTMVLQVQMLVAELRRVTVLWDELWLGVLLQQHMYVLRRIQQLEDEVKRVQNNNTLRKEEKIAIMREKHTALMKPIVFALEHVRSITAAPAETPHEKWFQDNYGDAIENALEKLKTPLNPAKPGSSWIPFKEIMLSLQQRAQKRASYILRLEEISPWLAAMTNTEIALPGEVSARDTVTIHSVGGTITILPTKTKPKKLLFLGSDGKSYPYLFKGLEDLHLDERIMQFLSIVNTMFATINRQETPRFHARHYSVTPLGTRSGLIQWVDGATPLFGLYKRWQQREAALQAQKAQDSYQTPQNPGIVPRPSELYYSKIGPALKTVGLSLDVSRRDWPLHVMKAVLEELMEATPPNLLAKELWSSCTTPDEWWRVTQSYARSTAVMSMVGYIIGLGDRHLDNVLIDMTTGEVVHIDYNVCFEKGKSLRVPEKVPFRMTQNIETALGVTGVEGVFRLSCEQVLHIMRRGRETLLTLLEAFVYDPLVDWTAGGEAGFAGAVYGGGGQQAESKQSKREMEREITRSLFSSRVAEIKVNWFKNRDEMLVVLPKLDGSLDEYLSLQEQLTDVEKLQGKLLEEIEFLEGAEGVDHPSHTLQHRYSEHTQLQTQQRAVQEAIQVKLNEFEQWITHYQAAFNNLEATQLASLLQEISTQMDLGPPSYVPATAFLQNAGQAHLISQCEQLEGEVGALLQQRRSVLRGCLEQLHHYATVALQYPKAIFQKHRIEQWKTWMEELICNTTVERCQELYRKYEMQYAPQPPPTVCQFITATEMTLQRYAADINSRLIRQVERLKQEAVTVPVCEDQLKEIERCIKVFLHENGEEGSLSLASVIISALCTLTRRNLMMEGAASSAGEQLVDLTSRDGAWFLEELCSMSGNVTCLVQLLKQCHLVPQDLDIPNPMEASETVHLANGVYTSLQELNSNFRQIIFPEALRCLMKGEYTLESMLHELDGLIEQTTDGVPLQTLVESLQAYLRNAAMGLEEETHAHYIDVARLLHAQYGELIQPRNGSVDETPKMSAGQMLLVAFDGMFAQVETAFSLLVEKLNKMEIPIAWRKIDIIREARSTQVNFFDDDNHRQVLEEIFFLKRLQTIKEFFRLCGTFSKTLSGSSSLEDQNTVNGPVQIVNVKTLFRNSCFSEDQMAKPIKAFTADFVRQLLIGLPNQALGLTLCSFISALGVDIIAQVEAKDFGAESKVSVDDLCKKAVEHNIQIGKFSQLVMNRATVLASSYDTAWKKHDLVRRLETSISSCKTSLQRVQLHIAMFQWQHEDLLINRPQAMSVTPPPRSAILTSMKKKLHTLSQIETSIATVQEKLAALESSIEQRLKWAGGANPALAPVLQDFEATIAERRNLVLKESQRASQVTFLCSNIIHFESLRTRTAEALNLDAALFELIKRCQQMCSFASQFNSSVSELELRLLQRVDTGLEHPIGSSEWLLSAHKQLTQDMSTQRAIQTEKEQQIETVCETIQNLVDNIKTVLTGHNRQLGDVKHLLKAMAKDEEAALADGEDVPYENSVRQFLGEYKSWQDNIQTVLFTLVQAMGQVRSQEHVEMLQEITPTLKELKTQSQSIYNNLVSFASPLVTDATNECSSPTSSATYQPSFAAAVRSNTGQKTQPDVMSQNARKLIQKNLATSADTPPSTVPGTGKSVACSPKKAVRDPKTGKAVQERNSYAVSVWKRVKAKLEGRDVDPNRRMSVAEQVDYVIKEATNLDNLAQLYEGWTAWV

Compound	IC50 (human SMG-1 (hSMG-1)) [µM]	IC50 (Human mTOR; read-out: TOR Kinase IC50) [µM]	IC50 (Human mTOR) [µM]	IC50 (PI3K-alpha) [µM]	IC50 (PI3K-gamma) [µM]
CCCNC(=O)Nc1cccc(-c2nc(N3CCOCC3)c3ccc4c(ccn4C)c3n2)c1 [Example 127, 1-[3-(7-methyl-4-morpholin-4-yl-7H-pyrrolo[2,3-h]quinazolin-2-yl)phenyl]-3-propylurea]	15.5	1.5			
CCOC(=O)Nc1cccc(-c2nc(N3CCOCC3)c3ccc4c(ccn4C)c3n2)c1 [Example 124, ethyl [3-(7-methyl-4-morpholin-4-yl-7H-pyrrolo[2,3-h]quinazolin-2-yl)phenyl]carbamate]	> 20	1.9			
Cn1ccc2c3nc(-c4cccc(NC(=O)Nc5cccnc5)c4)nc(N4CCOCC4)c3ccc21 [Example 123, 1-[3-(7-methyl-4-morpholin-4-yl-7H-pyrrolo[2,3-h]quinazolin-2-yl)phenyl]-3-pyridin-3-ylurea]	5.5	2.55			
CC(=O)c1cccc(NC(=O)Nc2ccc(-c3nc(N4CCOCC4)c4ccc5c(ccn5C)c4n3)cc2)c1 [Example 114, 1-(3-acetylphenyl)-3-[4-(7-methyl-4-morpholin-4-yl-7H-pyrrolo[2,3-h]quinazolin-2-yl)phenyl]urea]	10.5		5.55		
CCCC(=O)Nc1cccc(-c2nc(N3CCOCC3)c3ccc4c(ccn4C)c3n2)c1 [Example 126, N-[3-(7-methyl-4-morpholin-4-yl-7H-pyrrolo[2,3-h]quinazolin-2-yl)phenyl]butanamide]	> 20	1.9			
CS(=O)(=O)n1ccc2c3nc(-c4ccc(NC(=O)Nc5ccccc5)cc4)nc(N4CCOCC4)c3ccc21 [Example 84, 1-{4-[7-(methylsulfonyl)-4-morpholin-4-yl-7H-pyrrolo[2,3-h]quinazolin-2-yl]phenyl}-3-phenylurea]	0.475				
Cn1ccc2c3nc(-c4cccc(NC(=O)Nc5ccncc5)c4)nc(N4CCOCC4)c3ccc21 [Example 122, 1-[3-(7-methyl-4-morpholin-4-yl-7H-pyrrolo[2,3-h]quinazolin-2-yl)phenyl]-3-pyridin-4-ylurea]	6.5				
CS(=O)(=O)n1ccc2c3nc(-c4ccc(NC(=O)C5CC5)cc4)nc(N4CCOCC4)c3ccc21 [Example 87, N-{4-[7-(methylsulfonyl)-4-morpholin-4-yl-7H-pyrrolo[2,3-h]quinazolin-2-yl]phenyl}cyclopropanecarboxamide]	5.6				
Cn1ccc2c3nc(-c4ccc(NC(=O)NC5CCCCC5)cc4)nc(N4CCOCC4)c3ccc21 [Example 108, 1-cyclohexyl-3-[4-(7-methyl-4-morpholin-4-yl-7H-pyrrolo[2,3-h]quinazolin-2-yl)phenyl]urea]	> 20	7.25			
Cn1ccc2c3nc(-c4ccc(NC(=O)NCCCN5CCCC5)cc4)nc(N4CCOCC4)c3ccc21 [Example 104]	> 20	2.4			
Cn1ccc2c3nc(-c4ccc(NC(=O)NCC5CCCO5)cc4)nc(N4CCOCC4)c3ccc21 (centres unmarked) [Example 102, 1-[4-(7-methyl-4-morpholin-4-yl-7H-pyrrolo[2,3-h]quinazolin-2-yl)phenyl]-3-(tetrahydrofuran-2-ylmethyl)urea]	> 17	1.5			
CC(=O)c1ccc(NC(=O)Nc2ccc(-c3nc(N4CCOCC4)c4ccc5c(ccn5C)c4n3)cc2)cc1 [Example 115, 1-(4-acetylphenyl)-3-[4-(7-methyl-4-morpholin-4-yl-7H-pyrrolo[2,3-h]quinazolin-2-yl)phenyl]urea]	4.25	0.47			
CCC(=O)Nc1cccc(-c2nc(N3CCOCC3)c3ccc4c(ccn4C)c3n2)c1 [Example 129, N-[3-(7-methyl-4-morpholin-4-yl-7H-pyrrolo[2,3-h]quinazolin-2-yl)phenyl]propanamide]	> 20	1.5			
Cc1noc(C)c1NC(=O)Nc1ccc(-c2nc(N3CCOCC3)c3ccc4c(ccn4C)c3n2)cc1 [Example 116, 1-(3,5-dimethylisoxazol-4-yl)-3-[4-(7-methyl-4-morpholin-4-yl-7H-pyrrolo[2,3-h]quinazolin-2-yl)phenyl]urea]	> 20	1.27			
Cn1ccc2c3nc(-c4ccc(NC(=O)NC5CCC5)cc4)nc(N4CCOCC4)c3ccc21 [Example 106, 1-cyclobutyl-3-[4-(7-methyl-4-morpholin-4-yl-7H-pyrrolo[2,3-h]quinazolin-2-yl)phenyl]urea]	16.5	1.5			
Cn1ccc2c3nc(-c4cccc(NC(=O)C5CC5)c4)nc(N4CCOCC4)c3ccc21 [Example 125, N-[3-(7-methyl-4-morpholin-4-yl-7H-pyrrolo[2,3-h]quinazolin-2-yl)phenyl]cyclopropanecarboxamide]	> 20	1.3			
O=S(=O)(c1ccccc1)n1ccc2c3nc(-c4cccc(CO)c4)nc(N4CCOCC4)c3ccc21 [Example 70, {3-[4-morpholin-4-yl-7-(phenylsulfonyl)-7H-pyrrolo[2,3-h]quinazolin-2-yl]phenyl}methanol]		5.8		0.168	2.07
Cn1ccc2c3nc(-c4cccc(O)c4)nc(N4CCOCC4)c3ccc21 [Example 35, 3-(7-methyl-4-morpholin-4-yl-7H-pyrrolo[2,3-h]quinazolin-2-yl)phenol]		0.41		0.174	2.23

Other lines, results leading:

IC50 (human SMG-1 (hSMG-1)) [µM]	IC50 (Human mTOR; read-out: TOR Kinase IC50) [µM]	IC50 (Human mTOR) [µM]	IC50 (PI3K-alpha) [µM]	IC50 (PI3K-gamma) [µM]	Compound
15	0.625				Cn1ccc2c3nc(-c4ccc(NC(=O)NCCF)cc4)nc(N4CCOCC4)c3ccc21 [Example 118, 1-(2-fluoroethyl)-3-[4-(7-methyl-4-morpholin-4-yl-7H-pyrrolo[2,3-h]quinazolin-2-yl)phenyl]urea]
15.5					CCOC(=O)Nc1ccc(-c2nc(N3CCOCC3)c3ccc4c(ccn4S(C)(=O)=O)c3n2)cc1 [Example 86, ethyl {4-[7-(methylsulfonyl)-4-morpholin-4-yl-7H-pyrrolo[2,3-h]quinazolin-2-yl]phenyl}carbamate]
6.5	1.26				Cn1ccc2c3nc(-c4ccc(NC(=O)NCC(F)(F)F)cc4)nc(N4CCOCC4)c3ccc21 [Example 119, 1-[4-(7-methyl-4-morpholin-4-yl-7H-pyrrolo[2,3-h]quinazolin-2-yl)phenyl]-3-(2,2,2-trifluoroethyl)urea]
> 20	2				COC(=O)Nc1ccc(-c2nc(N3CCOCC3)c3ccc4c(ccn4CCN(C)C)c3n2)cc1 [Example 98, methyl (4-{7-[2-(dimethylamino)ethyl]-4-morpholin-4-yl-7H-pyrrolo[2,3-h]quinazolin-2-yl}phenyl)carbamate]
> 20	2.8				CC(=O)Nc1ccc(-c2nc(N3CCOCC3)c3ccc4c(ccn4CCN(C)C)c3n2)cc1 [Example 112, N-(4-{7-[2-(dimethylamino)ethyl]-4-morpholin-4-yl-7H-pyrrolo[2,3-h]quinazolin-2-yl}phenyl)acetamide]
6.1					CCC(=O)Nc1ccc(-c2nc(N3CCOCC3)c3ccc4c(ccn4S(C)(=O)=O)c3n2)cc1 [Example 91, N-{4-[7-(methylsulfonyl)-4-morpholin-4-yl-7H-pyrrolo[2,3-h]quinazolin-2-yl]phenyl}propanamide]
> 20					CCCC(=O)Nc1ccc(-c2nc(N3CCOCC3)c3ccc4c(ccn4S(C)(=O)=O)c3n2)cc1 [Example 88, N-{4-[7-(methylsulfonyl)-4-morpholin-4-yl-7H-pyrrolo[2,3-h]quinazolin-2-yl]phenyl}butanamide]
5.6					COC(=O)Nc1ccc(-c2nc(N3CCOCC3)c3ccc4c(ccn4S(C)(=O)=O)c3n2)cc1 [Example 90, methyl {4-[7-(methylsulfonyl)-4-morpholin-4-yl-7H-pyrrolo[2,3-h]quinazolin-2-yl]phenyl}carbamate]
5.25					CC(=O)Nc1ccc(-c2nc(N3CCOCC3)c3ccc4c(ccn4S(C)(=O)=O)c3n2)cc1 [Example 92, N-{4-[7-(methylsulfonyl)-4-morpholin-4-yl-7H-pyrrolo[2,3-h]quinazolin-2-yl]phenyl}acetamide]
> 20	6.2				CCCC(=O)Nc1ccc(-c2nc(N3CCOCC3)c3ccc4c(ccn4CCN(C)C)c3n2)cc1 [Example 97, N-(4-{7-[2-(dimethylamino)ethyl]-4-morpholin-4-yl-7H-pyrrolo[2,3-h]quinazolin-2-yl}phenyl)butanamide]
16	0.5				Cn1ccc2c3nc(-c4ccc(NC(=O)NCC5CC5)cc4)nc(N4CCOCC4)c3ccc21 [Example 100, 1-(cyclopropylmethyl)-3-[4-(7-methyl-4-morpholin-4-yl-7H-pyrrolo[2,3-h]quinazolin-2-yl)phenyl]urea]
2					CCNC(=O)Nc1ccc(-c2nc(N3CCOCC3)c3ccc4c(ccn4CCN(C)C)c3n2)cc1 [Example 94, 1-(4-{7-[2-(dimethylamino)ethyl]-4-morpholin-4-yl-7H-pyrrolo[2,3-h]quinazolin-2-yl}phenyl)-3-ethylurea]
> 20	2.05				CCCOC(=O)Nc1ccc(-c2nc(N3CCOCC3)c3ccc4c(ccn4S(C)(=O)=O)c3n2)cc1 [Example 109, propyl {4-[7-(methylsulfonyl)-4-morpholin-4-yl-7H-pyrrolo[2,3-h]quinazolin-2-yl]phenyl}carbamate]
> 20					CCOC(=O)Nc1ccc(-c2nc(N3CCOCC3)c3ccc4c(ccn4CCN(C)C)c3n2)cc1 [Example 93, ethyl (4-{7-[2-(dimethylamino)ethyl]-4-morpholin-4-yl-7H-pyrrolo[2,3-h]quinazolin-2-yl}phenyl)carbamate]
	1.3		0.201	3.19	CN(C)CCn1ccc2c3nc(-c4cnc(N)nc4)nc(N4CCOCC4)c3ccc21 [Example 34, 5-{7-[2-(dimethylamino)ethyl]-4-morpholin-4-yl-7H-pyrrolo[2,3-h]quinazolin-2-yl}pyrimidin-2-amine]
